In patent US20250171437A1 (Agios Pharmaceuticals,Inc., priority 2022, published 2025) one finds AC50 data, which are given here for 31 molecules.

For one experiment, the target named is T1, human PAH with the R408W mutation (A375 R408W cells) (Homo sapiens, UniProt P00439, R408W).
T1 construct: expressed in transfected cells
T1 sequence (P00439 1-452 R408W): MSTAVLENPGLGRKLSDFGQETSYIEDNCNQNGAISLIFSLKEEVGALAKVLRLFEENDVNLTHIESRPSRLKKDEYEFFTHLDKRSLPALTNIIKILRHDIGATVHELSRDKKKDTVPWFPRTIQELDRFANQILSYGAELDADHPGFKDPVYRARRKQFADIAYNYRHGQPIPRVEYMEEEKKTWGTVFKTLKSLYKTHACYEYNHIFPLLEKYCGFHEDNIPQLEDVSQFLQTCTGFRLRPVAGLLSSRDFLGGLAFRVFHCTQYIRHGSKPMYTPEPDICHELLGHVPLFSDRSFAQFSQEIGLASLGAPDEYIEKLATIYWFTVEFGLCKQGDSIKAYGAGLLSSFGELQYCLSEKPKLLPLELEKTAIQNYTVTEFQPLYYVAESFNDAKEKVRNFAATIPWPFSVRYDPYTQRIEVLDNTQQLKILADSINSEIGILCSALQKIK
Nature of the experiment: Cell Based Phenylalanine Flux Assay. To be noted: A375 R408W cells; 24 hrs with compound, then 20 μM sepiapterin and 800 μM 13C9,15N-Phenylalanine for 4 hours; 13C-Tyrosine by LC-MS; average where tested multiple times. An outline of the steps: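 AC50 is derived from LC-MS of 13C-tyrosine in the media after a 4 h pulse of 800 μM 13C9,15N-phenylalanine plus 20 μM sepiapterin. The A375 R408W PAH cells had received duplicate 10-point, 2-fold compound dilutions (0.5% DMSO) for 24 h beforehand.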
Broadly, the AC50 is the concentration giving half of the maximal activity seen. As to `O=C(c1ocnc1C1CC1)N1CCc2[nH]cnc2[C@H]1c1nc2cc(F)ccc2o1` [Example 41, (S)-(4-cyclopropyloxazol-5-yl)(4-(5-fluorobenzo[d]oxazol-2-yl)-6,7-dihydro-1H-imidazo[4,5-c]pyridin-5(4H)-yl)methanone], the AC50 was not above 500 nM. On the same count and under the same terms, the value for `O=C(c1cnc(-c2ccccn2)o1)N1CCc2[nH]cnc2[C@@H]1c1nc2ccc(Br)cc2o1` [Example 8, (R)-(4-(6-bromobenzo[d]oxazol-2-yl)-6,7-dihydro-1H-imidazo[4,5-c]pyridin-5(4H)-yl)(2-(pyridin-2-yl)oxazol-5-yl)methanone] was 1000 to 5000 nM.

As for `O=C(c1ccnn1CC(F)F)N1CCc2[nH]cnc2[C@H]1c1nc2c(F)cccc2o1` [Example 850, (S)-(1-(2,2-difluoroethyl)-1H-pyrazol-5-yl)(4-(4-fluorobenzo[d]oxazol-2-yl)-6,7-dihydro-1H-imidazo[4,5-c]pyridin-5(4H)-yl)methanone], the AC50 lay within 1000 to 5000 nM. With `Cn1cncc1-c1nc(C(F)F)c(C(=O)N2CCc3[nH]cnc3[C@H]2c2nc3cc(F)ccc3o2)o1` [Example 687, (S)-(4-(difluoromethyl)-2-(1-methyl-1H-imidazol-5-yl)oxazol-5-yl)(4-(5-fluorobenzo[d]oxazol-2-yl)-6,7-dihydro-1H-imidazo[4,5-c]pyridin-5(4H)-yl)methanone], the AC50 was in the range of 500 to 1000 nM.

`O=C(c1cnn2cc(-c3ccccn3)ccc12)N1CCc2[nH]cnc2[C@@H]1c1nc2c(F)cccc2o1` [Example 544, (R)-(4-(4-fluorobenzo[d]oxazol-2-yl)-6,7-dihydro-1H-imidazo[4,5-c]pyridin-5(4H)-yl)(6-(pyridin-2-yl)pyrazolo[1,5-a]pyridin-3-yl)methanone]: the AC50 is 1000 to 5000 nM. In the case of `COc1cc(F)c2oc([C@@H]3c4nc[nH]c4CCN3C(=O)c3ocnc3C(F)F)nc2c1` [Example 663, (S)-(4-(difluoromethyl)oxazol-5-yl)(4-(7-fluoro-5-methoxybenzo[d]oxazol-2-yl)-6,7-dihydro-1H-imidazo[4,5-c]pyridin-5(4H)-yl)methanone], the AC50 was not above 500 nM. As to `COc1cccc2nc([C@@H]3c4nc[nH]c4CCN3C(=O)c3ccnn3C(C)C)oc12` [Example 765, (S)-(1-isopropyl-1H-pyrazol-5-yl)(4-(7-methoxybenzo[d]oxazol-2-yl)-6,7-dihydro-1H-imidazo[4,5-c]pyridin-5(4H)-yl)methanone], the AC50 is not above 500 nM. For `Cc1ccc2oc([C@@H]3c4nc[nH]c4CCN3C(=O)c3nnc(-c4cc[nH]n4)o3)nc2c1` [Example 355, (S)-(5-(1H-pyrazol-3-yl)-1,3,4-oxadiazol-2-yl)(4-(5-methylbenzo[d]oxazol-2-yl)-6,7-dihydro-1H-imidazo[4,5-c]pyridin-5(4H)-yl)methanone], the AC50 was 500 to 1000 nM.

As for `Cn1nc(C(F)F)cc1C(=O)N1CCc2[nH]cnc2[C@H]1c1nc2cccc(F)c2o1` [Example 733, (S)-(3-(difluoromethyl)-1-methyl-1H-pyrazol-5-yl)(4-(7-fluorobenzo[d]oxazol-2-yl)-6,7-dihydro-1H-imidazo[4,5-c]pyridin-5(4H)-yl)methanone], the AC50 is not above 500 nM.

With `O=C(CCc1nccs1)N1CCc2[nH]cnc2[C@H]1c1nc2ccccc2o1` [Example 913, (S)-1-(4-(benzo[d]oxazol-2-yl)-6,7-dihydro-1H-imidazo[4,5-c]pyridin-5(4H)-yl)-3-(thiazol-2-yl)propan-1-one], the AC50 fell in the range of 500 to 1000 nM.

Consider `CC1CN(C(=O)c2ocnc2C(F)F)[C@@H](c2nc3cccc(F)c3o2)c2nc[nH]c21` (single isomer, unassigned) [Example 806], for which the AC50 lay in the range of 1000 to 5000 nM. As for `O=C(c1nnc(-c2ccccn2)o1)N1CCc2[nH]cnc2[C@H]1c1nc2c(F)cccc2o1` [Example 333, (S)-(4-(4-fluorobenzo[d]oxazol-2-yl)-6,7-dihydro-1H-imidazo[4,5-c]pyridin-5(4H)-yl)(5-(pyridin-2-yl)-1,3,4-oxadiazol-2-yl)methanone], the AC50 was not above 500 nM. For `O=C(c1nnc(-c2ccccn2)o1)N1Cc2[nH]cnc2[C@@H]1c1nc2ccccc2o1` [Example 938, (R)-(4-(benzo[d]oxazol-2-yl)-4,6-dihydropyrrolo[3,4-d]imidazol-5(1H)-yl)(5-(pyridin-2-yl)-1,3,4-oxadiazol-2-yl)methanone], the AC50 lay in the range of 1000 to 5000 nM.

With `COc1cc(F)c2oc([C@H]3c4nc[nH]c4CCN3C(=O)c3oc(C(C)(C)O)nc3C(F)F)nc2c1` [Example 644, (R)-(4-(difluoromethyl)-2-(2-hydroxypropan-2-yl)oxazol-5-yl)(4-(7-fluoro-5-methoxybenzo[d]oxazol-2-yl)-6,7-dihydro-1H-imidazo[4,5-c]pyridin-5(4H)-yl)methanone], the half-maximal activity concentration (AC50) was not above 500 nM. In the case of `CCn1cnnc1C(=O)N1CCc2[nH]cnc2[C@H]1c1nc2cc(F)ccc2o1` [Example 885, (S)-(4-ethyl-4H-1,2,4-triazol-3-yl)(4-(5-fluorobenzo[d]oxazol-2-yl)-6,7-dihydro-1H-imidazo[4,5-c]pyridin-5(4H)-yl)methanone], the AC50 fell in the range of 1000 to 5000 nM. For `O=C(c1ocnc1CF)N1CCc2[nH]cnc2[C@H]1c1nc2cc(F)ccc2o1` [Example 179, (S)-(4-(5-fluorobenzo[d]oxazol-2-yl)-6,7-dihydro-1H-imidazo[4,5-c]pyridin-5(4H)-yl)(4-(fluoromethyl)oxazol-5-yl)methanone], the AC50 was 500 to 1000 nM.

Turning to `Cc1ccc2oc([C@@H]3c4nc[nH]c4CCN3C(=O)c3nnc(-c4ncccc4F)o3)nc2c1` [Example 653, (S)-(5-(3-fluoropyridin-2-yl)-1,3,4-oxadiazol-2-yl)(4-(5-methylbenzo[d]oxazol-2-yl)-6,7-dihydro-1H-imidazo[4,5-c]pyridin-5(4H)-yl)methanone], the AC50 is not above 500 nM. For the molecule `Cn1ccc(-c2nnc(C(=O)N3CCc4[nH]cnc4[C@H]3c3nc4ccccc4o3)o2)n1` [Example 843, (S)-(4-(benzo[d]oxazol-2-yl)-6,7-dihydro-1H-imidazo[4,5-c]pyridin-5(4H)-yl)(5-(1-methyl-1H-pyrazol-3-yl)-1,3,4-oxadiazol-2-yl)methanone], the AC50 is not above 500 nM. As to `O=C(CC1CC1)N1CCc2[nH]cnc2[C@@H]1c1nc2ccc(Br)cc2o1` [Example 4, (R)-1-(4-(6-bromobenzo[d]oxazol-2-yl)-6,7-dihydro-1H-imidazo[4,5-c]pyridin-5(4H)-yl)-2-cyclopropylethanone], the AC50 was not below 5000 nM. Turning to `O=C(c1oc(-c2ccccn2)nc1C(F)(F)F)N1CCc2[nH]cnc2[C@H]1c1nc2cccc(F)c2o1` [Example 638, (S)-(4-(7-fluorobenzo[d]oxazol-2-yl)-6,7-dihydro-1H-imidazo[4,5-c]pyridin-5(4H)-yl)(2-(pyridin-2-yl)-4-(trifluoromethyl)oxazol-5-yl)methanone], the AC50 is not above 500 nM. As for `Cc1ccc2oc([C@@H]3c4nc[nH]c4CCN3C(=O)c3ccnn3C(F)F)nc2c1` [Example 313, (S)-(1-(difluoromethyl)-1H-pyrazol-5-yl)(4-(5-methylbenzo[d]oxazol-2-yl)-6,7-dihydro-1H-imidazo[4,5-c]pyridin-5(4H)-yl)methanone], the AC50 is not above 500 nM. Consider `O=C(c1ccnn1C(F)F)N1CCc2[nH]cnc2[C@H]1c1nc2ccccc2o1` [Example 563, (S)-(4-(benzo[d]oxazol-2-yl)-6,7-dihydro-1H-imidazo[4,5-c]pyridin-5(4H)-yl)(1-(difluoromethyl)-1H-pyrazol-5-yl)methanone], for which the AC50 was not above 500 nM.

In the case of `O=C(c1ocnc1C(F)F)N1CCc2[nH]cnc2[C@H]1c1nc2ccc(F)c(F)c2o1` [Example 305, (S)-(4-(6,7-difluorobenzo[d]oxazol-2-yl)-6,7-dihydro-1H-imidazo[4,5-c]pyridin-5(4H)-yl)(4-(difluoromethyl)oxazol-5-yl)methanone], the AC50 is not above 500 nM. Still for that read-out and setting: the result for `O=C(c1nnc(-c2ncccc2F)o1)N1CCc2[nH]cnc2[C@H]1c1nc2cccc(C(F)(F)F)c2o1` [Example 840, (S)-(5-(3-fluoropyridin-2-yl)-1,3,4-oxadiazol-2-yl)(4-(7-(trifluoromethyl)benzo[d]oxazol-2-yl)-6,7-dihydro-1H-imidazo[4,5-c]pyridin-5(4H)-yl)methanone] reads not above 500 nM.

The experiment is the same for the next values; noted with them: A375 cells expressing R408W PAH; 24 hrs with compound, then 20 μM sepiapterin and 800 μM 13C9,15N-Phenylalanine for 4 hours; 13C-Tyrosine by LC-MS; average where tested multiple times.
As to `O=C(c1cnco1)N1CCc2[nH]cnc2C1c1nc2c(F)c(F)ccc2o1` (stereo not shown), the AC50 is not below 5000 nM. In the case of `O=C(c1ccn(-c2ccccn2)n1)N1CCc2[nH]cnc2C1c1nc2ccccc2o1` (stereo not shown), the AC50 fell in the range of 1000 to 5000 nM. With `Cc1ccc2oc(C3c4nc[nH]c4CCN3C(=O)c3nnc(C(C)(C)O)o3)nc2c1` (stereo not shown), the AC50 is not below 5000 nM.

On to `Cc1nc(C(=O)N2CCc3[nH]cnc3C2c2nc3c(F)cccc3o2)n(C)n1` (stereo not shown), for which the AC50 was in the range of 1000 to 5000 nM. In the case of `CN1CCN(c2nnc(C(=O)N3CCc4[nH]cnc4C3c3nc4cc(F)ccc4o3)o2)CC1` (stereo not shown), the AC50 is not below 5000 nM.

Consider `Cn1nccc1C(=O)N1CCc2[nH]cnc2C1c1nc2cccc(F)c2o1` (stereo not shown), for which the AC50 lay within 1000 to 5000 nM. In the case of `Cn1nc(C(F)F)nc1C(=O)N1CCc2[nH]cnc2C1c1nc2ccc(F)cc2o1` (stereo not shown), the AC50 was 1000 to 5000 nM.
